By IC50 is commonly meant the midpoint of a concentration-inhibition curve. A higher IC50 goes with weaker potency. Broadly, the microsomal CLint is the capacity of the preparation to metabolise the compound, expressed as a volume cleared per time. Lower therefore signals greater metabolic stability. Usually MRT stands for a mean duration of stay, worked out from the concentration-time curve. In general, Tmax refers to the time from dosing to the highest level.

3 compounds from US12612403B2, “Nitrogen-containing heterocyclic derivative inhibitor, and preparation method therefor and use thereof” (SHANGHAI HANSOH BIOMEDICAL CO., LTD., priority 2024, dated 2026) can be followed below.

The target of one series is T1, PCSK9 protein (Homo sapiens, UniProt Q8NBP7).
T1 construct: purchased Sino biology (Sino Biological) 29698-H08H
The series can be described thus: Binding ability to PCSK9 protein (HTRF). To be noted: PCSK9-His, Alexa Fluor 647 probe compound. How it is done:
1. Experimental objective: To detect the action of compounds to bind PCSK9 protein by an HTRF method.
3. Experimental data processing method: Four-parameter log(inhibitor) vs. response—Variable slope (four parameters) in XLit was used to perform non-linear fitting of the compound concentration and the corresponding inhibition rate, and IC50 was calculated.
In general terms: Time-resolved FRET reads energy transfer from a long-lived donor to a nearby acceptor.

Series [1] in a line: In vitro metabolic stability in human liver microsomes. In kind it is in vitro ADME. To be noted: pH 7.4. On the procedure:
1. Experimental objective: The purpose of this experiment was to evaluate the metabolic stability of the compounds in phase I and partially phase II in mouse, rat and human liver microsomes, respectively.
2.1 Drug preparation: 10 mM stock solution of the compound of the present disclosure was prepared in DMSO (or other suitable solution) and stored in a −20° C. refrigerator for later use. The compound of the present disclosure was made in house.
2.2 Experimental steps • 1) Preparation of buffer: 4.01 mL of 1 M K2HPO4·3H2O (AR grade) and 0.99 mL of 1 M KH2PO4 (AR grade) were dissolved in ultrapure water and the volume was adjusted to 50 mL to prepare a phosphate buffer with a final concentration of 100 mM. • 2) Preparation of compound working solution: Preparation of compound working solution: 2 μL of the compound stock solution was added to 998 μL of phosphate buffer to a final concentration of 20 μM. According to the properties of the compound, the preparation proportions could be adjusted appropriately to adjust the final concentration. • 3) Preparation of liver microsome working solution: 156.3 μL of 20 mg/mL microsomes were diluted to 5 mL with 100 mM phosphate buffer, and the mixture was mixed well to reach a final concentration of 0.625 mg/mL. • 4) Preparation of NADPH and UDPGA: 33.3 mg of NADPH and 25.8 mg of UDPGA were weighed and added to 2 mL of 100 mM phosphate buffer to reach a final concentration of 20 mM. • 5) Preparation of pore-forming agent (Alamethicin): 1 mg of Alamethicin was weighed and added to 200 μL of methanol to prepare a 5 mg/mL solution. 10 μL of the solution was taken and added to 990 μL phosphate buffer (pH 7.4) to reach a final concentration of 50 μg/mL. • 6) Preparation of reaction stop solution: The internal standard was diluted with acetonitrile (or other suitable solution) to use as a stop solution and stored in a 2° C.-8° C. refrigerator. • 7) Incubation process: 400 μL of the prepared liver microsomes, 25 μL of the compound working solution (20 μM) and 25 μL of Alamethicin (50 μg/mL) were successively added to the 96-well plate, and the mixture was pre-incubated at 37° C. for 10 min. Then, 50 μL of prepared NADPH/UDPGA was added to start the reaction, and the mixture was incubated at 37° C. The total volume of the reaction system was 500 μL. The final contents of each component were as follows:
50 μL of samples were taken at 0, 5, 15, 30, 60 and 120 min, respectively, 200 μL of a cold stop solution containing the internal standard was added to stop the sample reaction, the mixture was centrifuged at 3500 rpm for 10 min, and the supernatant was taken and analyzed by LC-MS/MS.
Instruments: Shimadzu LC-20 AD; Chromatographic column: Phenomenex Gamin® C18 (50*4.6 mm, 5 μm particle size); mobile phase: A: 0.1% aqueous formic acid, B: acetonitrile; Elution gradient: 0.2-1.6 min, […], 3.0-3.1 min, 95% A to 5% A; Flow rate: 1.0 ml/min; Run time: 4.0 min; Injection volume: 5 μL.
Instruments: AP14000 liquid chromatography mass spectrometer, AB Sciex; Ion source: electrospray ionization source (ESI); Drying gas: N2, temperature 500° C.; Electrospray voltage: 5000 V; Detection mode: positive ion detection; Scanning mode: Reaction Monitoring (MRM) mode; Scanning time: 0.8401 s.
3. Data processing: The raw data were calculated according to the following formula: […]
The in vitro liver microsome intrinsic clearance rate (CLint) and liver intrinsic clearance rate (CLint,liver) were calculated by Ke.
(In general: Liver microsomes are vesicles of endoplasmic reticulum, rich in cytochrome P450 enzymes.)

A short description of series [2]: Pharmacokinetic determination in mice (PO 5 mg/kg, IV 1 mg/kg). It is filed as in vivo, C57BL/6J mice. To be noted: male, C57BL/6J, mouse, plasma, C57 mice, PO administration, 5 mpk; for AUC(0-inf): read-out: Area under the curve AUC0-∞; for half-life: read-out: Half-life t1/2 (converted); for MRT: read-out: Mean residence time MRT; for Cmax: read-out: Plasma concentration Cmax; for Tmax: read-out: Time to peak tmax. A digest of the protocol: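 Fasted male C57BL/6J mice (n=3 per route) dosed PO 5 mg/kg in 10% Solutol HS15 or IV 1 mg/kg in 5% DMSO/10% Solutol HS15/85% PBS. Orbital blood sampled 0.083 (IV) to 24 h; plasma measured by LC-MS/MS, parameters by WinNonlin.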

T1 sequence (Q8NBP7 153-692): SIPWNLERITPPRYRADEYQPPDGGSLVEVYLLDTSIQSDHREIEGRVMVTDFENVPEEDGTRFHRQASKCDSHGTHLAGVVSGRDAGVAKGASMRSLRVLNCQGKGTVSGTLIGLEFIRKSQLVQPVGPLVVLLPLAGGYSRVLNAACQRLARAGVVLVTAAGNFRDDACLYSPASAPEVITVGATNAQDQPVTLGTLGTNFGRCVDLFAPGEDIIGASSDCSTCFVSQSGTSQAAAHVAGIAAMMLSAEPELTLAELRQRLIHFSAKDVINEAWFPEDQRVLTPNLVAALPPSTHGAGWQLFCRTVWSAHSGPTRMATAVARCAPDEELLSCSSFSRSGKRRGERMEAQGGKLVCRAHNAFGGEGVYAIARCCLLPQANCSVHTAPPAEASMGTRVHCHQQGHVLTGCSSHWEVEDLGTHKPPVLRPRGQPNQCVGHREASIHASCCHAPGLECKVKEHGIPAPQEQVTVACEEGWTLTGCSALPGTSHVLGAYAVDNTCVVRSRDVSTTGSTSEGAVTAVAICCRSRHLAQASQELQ

At PCSK9 protein, `O=c1nc(O)ccn1-c1ccc(N[C@H]2CC[C@H](Nc3nc4cc(C(F)(F)F)ccn4n3)C2)nc1` [Example 78, 4-hydroxy-1-(6-(((1S,3S)-3-((7-(trifluoromethyl)-[1,2,4]triazolo[1,5-a]pyridin-2-yl)amino)cyclopentyl)amino)pyridin-3-yl)pyrimidin-2(1H)-one] returned an IC50 of 10.1 nM. In series [1], this compound registered a half-life at 1 µM of 13.2 h and a microsomal CLint at 1 µM of 1.75 µL/min/mg. In series [2], the AUC(0-inf) was found to be 14000 ng·h/mL, the half-life was 3.6 h, the MRT came to 1.7 h and the Cmax came out at 7860 ng/mL. For the same compound, the Tmax in series [2] came out at 0.25 h.
With `O=C1c2ncccc2CN1c1cnc(N[C@H]2CC[C@H](Nc3nc4cc(OC(F)F)ccn4n3)C2)c(F)c1` [Example 151], the IC50 on PCSK9 protein stood at 8.1 nM. In series [1], this compound displayed a half-life at 1 µM of 11.8 h and a microsomal CLint at 1 µM of 1.9 µL/min/mg. In series [2], the AUC(0-inf) turned out to be 11300 ng·h/mL, the half-life was 1.4 h, the MRT was 2.3 h and the Cmax was determined as 3460 ng/mL. The Tmax in series [2] came to 0.5 h.
As to `O=c1nc(O)ccn1-c1cnc(N[C@H]2CC[C@H](Nc3nc4cc(C(F)(F)F)ccn4n3)C2)c(F)c1` [Example 183], at PCSK9 protein, the IC50 was determined as 8.8 nM. In series [1], this compound displayed a half-life at 1 µM of 23 h and a microsomal CLint at 1 µM of 1 µL/min/mg. For the same compound, in series [2], the AUC(0-inf) stood at 26700 ng·h/mL, the half-life was 3 h, the MRT came to 3.5 h and the Cmax came to 6130 ng/mL. The Tmax in series [2] worked out at 0.7 h.
